In patent publication US12098144B2, “Piperazine indazole glucocorticoid receptor antagonists” (Corcept Therapeutics Incorporated, priority 2021, dated 2024):

What follows are compounds tested against T1, glucocorticoid receptor (Homo sapiens, UniProt P04150) (assay: Hep G2 TAT Ki: inhibition of dexamethasone-induced TAT in HepG2 cells (96 well)). Conditions: challenge of 100 nM dexamethasone, IC50 converted to Ki by Cheng and Prusoff equation.
T1 construct: endogenous in cells; ATCC cat
T1 sequence (P04150 1-777): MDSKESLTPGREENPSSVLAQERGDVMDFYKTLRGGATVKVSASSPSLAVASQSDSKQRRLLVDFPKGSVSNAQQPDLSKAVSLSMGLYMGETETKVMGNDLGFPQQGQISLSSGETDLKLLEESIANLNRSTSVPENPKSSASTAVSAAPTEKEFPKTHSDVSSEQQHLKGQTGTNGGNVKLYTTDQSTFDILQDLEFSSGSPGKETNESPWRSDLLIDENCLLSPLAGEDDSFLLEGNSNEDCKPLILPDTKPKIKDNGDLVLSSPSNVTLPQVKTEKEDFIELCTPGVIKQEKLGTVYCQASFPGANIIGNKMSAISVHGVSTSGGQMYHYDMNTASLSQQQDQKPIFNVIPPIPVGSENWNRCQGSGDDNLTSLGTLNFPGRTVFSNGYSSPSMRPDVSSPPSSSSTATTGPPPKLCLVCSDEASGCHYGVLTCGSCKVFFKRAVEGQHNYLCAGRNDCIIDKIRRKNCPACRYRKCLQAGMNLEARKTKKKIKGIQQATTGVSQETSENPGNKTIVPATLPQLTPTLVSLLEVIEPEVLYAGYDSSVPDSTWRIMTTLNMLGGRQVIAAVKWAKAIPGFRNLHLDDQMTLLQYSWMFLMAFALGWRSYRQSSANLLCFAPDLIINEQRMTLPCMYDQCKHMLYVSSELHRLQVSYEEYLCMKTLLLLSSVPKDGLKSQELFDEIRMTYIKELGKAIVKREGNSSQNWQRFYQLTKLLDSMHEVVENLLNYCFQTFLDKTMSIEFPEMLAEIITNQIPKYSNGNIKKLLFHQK
Assay type: cell-based
In short: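 Cells lysed 15 min at 4 °C; TAT enzyme reaction 2 h at 37 °C, stopped with KOH, 30 min further at 37 °C. Inhibition fitted to 4-parameter logistic.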

Row | SMILES | Ki
1 | Cc1cc2c(cnn2-c2ccc(F)cc2)cc1C1CN(S(=O)(=O)c2cnn(C)n2)CCN1Cc1ccn(C)n1 (single isomer, unassigned) [Example 80, 1-(4-fluorophenyl)-6-methyl-5-(1-((1-methyl-1H-pyrazol-3-yl)methyl)-4-((2-methyl-2H-1,2,3-triazol-4-yl)sulfonyl)piperazin-2-yl)-1H-indazole] | 150 nM
2 | Cc1cc2c(cnn2-c2ccc(F)cc2)cc1C1CN(S(=O)(=O)c2cccnc2)CCN1CC(C)C (single isomer, unassigned) [Example 97, 1-(4-fluorophenyl)-5-(1-isobutyl-4-(pyridin-3-ylsulfonyl)piperazin-2-yl)-6-methyl-1H-indazole] | 23 nM
3 | Cc1cc2c(cnn2-c2ccc(F)cc2)cc1C1CN(S(=O)(=O)c2cnn(C)n2)CC(C)N1CC(C)C (stereo not shown) [Example 87, 1-(4-fluorophenyl)-5-(1-isobutyl-6-methyl-4-((2-methyl-2H-1,2,3-triazol-4-yl)sulfonyl)piperazin-2-yl)-6-methyl-1H-indazole] | 54 nM
4 | Cc1cc2c(cnn2-c2ccc(F)cc2)cc1[C@@H]1CN(S(=O)(=O)c2cnn(C)n2)CCN1CC(C)C(F)(F)F (single isomer, unassigned) [Example 23] | 13 nM
5 | Cc1cc2c(cnn2-c2ccc(F)cc2)cc1C1CN(S(=O)(=O)c2cnn(C)c2)CCN1CC(C)C (single isomer, unassigned) [Example 64, 1-(4-fluorophenyl)-5-(1-isobutyl-4-((1-methyl-1H-pyrazol-4-yl)sulfonyl)piperazin-2-yl)-6-methyl-1H-indazole] | 50 nM
6 | Cc1cc2c(cnn2-c2ccc(F)cc2)cc1[C@H]1CN(S(=O)(=O)c2cnn(C)n2)C[C@@H](C)N1CC(C)C (single isomer, unassigned) [Example 126] | 62 nM
7 | Cc1cc2c(cnn2-c2ccc(F)cc2)cc1C1CN(S(=O)(=O)c2cnn(C)n2)CCN1CC1(C(F)(F)F)CC1 (single isomer, unassigned) [Example 83, 1-(4-fluorophenyl)-6-methyl-5-(4-((2-methyl-2H-1,2,3-triazol-4-yl)sulfonyl)-1-((1-(trifluoromethyl)cyclopropyl)methyl)piperazin-2-yl)-1H-indazole] | 33 nM
8 | Cc1cc2c(cnn2-c2ccc(F)cc2)cc1C1CN(S(=O)(=O)c2ccc(C#N)cc2)CCN1CCC(F)(F)F (single isomer, unassigned) [Example 130, 4-((3-(1-(4-fluorophenyl)-6-methyl-1H-indazol-5-yl)-4-(3,3,3-trifluoropropyl)piperazin-1-yl)sulfonyl)benzonitrile] | 7.7 nM
9 | Cc1cc2c(cnn2-c2ccc(F)cc2)cc1[C@@H]1CN(S(=O)(=O)c2cnn(C)n2)CCN1CCC(F)(F)F [Example 84, (R)-1-(4-fluorophenyl)-6-methyl-5-(4-((2-methyl-2H-1,2,3-triazol-4-yl)sulfonyl)-1-(3,3,3-trifluoropropyl)piperazin-2-yl)-1H-indazole] | 14 nM
10 | Cc1cc2c(cnn2-c2ccc(F)cc2)cc1C1CN(S(=O)(=O)c2cnn(C)n2)CCN1CC1CCOC1 (single isomer, unassigned) [Example 85, 1-(4-fluorophenyl)-6-methyl-5-(4-((2-methyl-2H-1,2,3-triazol-4-yl)sulfonyl)-1-((tetrahydrofuran-3-yl)methyl)piperazin-2-yl)-1H-indazole] | 29 nM
11 | Cc1cc2c(cnn2-c2ccc(F)cc2)cc1C1CN(S(=O)(=O)c2cnccc2C)CCN1CCC(F)(F)F (single isomer, unassigned) [Example 138, 1-(4-fluorophenyl)-6-methyl-5-(4-((4-methylpyridin-3-yl)sulfonyl)-1-(3,3,3-trifluoropropyl)piperazin-2-yl)-1H-indazole] | 35 nM
12 | COc1ccc(S(=O)(=O)N2CCN(CC(C)C)C(c3cc4cnn(-c5ccc(F)cc5)c4cc3C)C2)cn1 (single isomer, unassigned) [Example 103, 1-(4-fluorophenyl)-5-(1-isobutyl-4-((6-methoxypyridin-3-yl)sulfonyl)piperazin-2-yl)-6-methyl-1H-indazole] | 35 nM
13 | Cc1cc2c(cnn2-c2ccc(F)cc2)cc1C1CN(S(=O)(=O)c2cnn(C)c2)CCN1CC(C)C(F)(F)F (single isomer, unassigned) [Example 141, 1-(4-fluorophenyl)-6-methyl-5-(4-((1-methyl-1H-pyrazol-4-yl)sulfonyl)-1-(3,3,3-trifluoro-2-methylpropyl)piperazin-2-yl)-1H-indazole] | 14 nM

Now from value to compound:

Row | Ki | SMILES
14 | 330 nM | Cc1cc2c(cnn2-c2ccc(F)cc2)cc1C1CN(S(=O)(=O)c2cnn(C)n2)CCN1Cc1ccon1 (single isomer, unassigned) [Example 72, 3-((2-(1-(4-fluorophenyl)-6-methyl-1H-indazol-5-yl)-4-((2-methyl-2H-1,2,3-triazol-4-yl)sulfonyl)piperazin-1-yl)methyl)isoxazole]
15 | 44 nM | Cc1cc2c(cnn2-c2ccc(F)cc2)cc1C1CN(S(=O)(=O)N(C)C2CC2)CCN1CC(C)C (single isomer, unassigned) [Example 62, N-cyclopropyl-3-(1-(4-fluorophenyl)-6-methyl-1H-indazol-5-yl)-4-isobutyl-N-methylpiperazine-1-sulfonamide]
16 | 43 nM | Cc1cc2c(cnn2-c2ccc(F)cc2)cc1C1CN(S(=O)(=O)c2cnn(C)n2)CCN1CC(C)(F)F (single isomer, unassigned) [Example 157, 5-(1-(2,2-difluoropropyl)-4-((2-methyl-2H-1,2,3-triazol-4-yl)sulfonyl)piperazin-2-yl)-1-(4-fluorophenyl)-6-methyl-1H-indazole]
17 | 220 nM | CC(C)CN1CCN(S(=O)(=O)c2cnn(C)n2)CC1c1cc2cnn(-c3ccc(F)cc3)c2cc1F (stereo not shown) [Example 159, 6-fluoro-1-(4-fluorophenyl)-5-(1-isobutyl-4-((2-methyl-2H-1,2,3-triazol-4-yl)sulfonyl)piperazin-2-yl)-1H-indazole]
18 | 330 nM | Cc1cc2c(cnn2-c2ccc(F)cc2)cc1C1CN(S(=O)(=O)c2cnn(C)n2)CCN1Cc1cccnc1 (stereo not shown) [Example 18, 1-(4-fluorophenyl)-6-methyl-5-(4-((2-methyl-2H-1,2,3-triazol-4-yl)sulfonyl)-1-(pyridin-3-ylmethyl)piperazin-2-yl)-1H-indazole]
19 | 62 nM | Cc1cc2c(cnn2-c2ccc(F)cc2)cc1C1CN(S(=O)(=O)c2cnn(C)c2)CCN1CC(C)C (stereo not shown) [Example 7, 1-(4-fluorophenyl)-5-(1-isobutyl-4-((1-methyl-1H-pyrazol-4-yl)sulfonyl)piperazin-2-yl)-6-methyl-1H-indazole]
20 | 19 nM | Cc1cc2c(cnn2-c2ccc(F)cc2)cc1C1CN(S(=O)(=O)c2cnn(C)n2)CCN1CC1CC(C)(C)C1 (single isomer, unassigned) [Example 119, 5-(1-((3,3-dimethylcyclobutyl)methyl)-4-((2-methyl-2H-1,2,3-triazol-4-yl)sulfonyl)piperazin-2-yl)-1-(4-fluorophenyl)-6-methyl-1H-indazole]
21 | 13 nM | CCn1cc(S(=O)(=O)N2CCN(CCC(F)(F)F)C(c3cc4cnn(-c5ccc(F)cc5)c4cc3C)C2)cn1 (single isomer, unassigned) [Example 131, 5-(4-((1-ethyl-1H-pyrazol-4-yl)sulfonyl)-1-(3,3,3-trifluoropropyl)piperazin-2-yl)-1-(4-fluorophenyl)-6-methyl-1H-indazole]
22 | 38 nM | CCn1ncc(S(=O)(=O)N2CCN(CC(C)C(F)(F)F)C(c3cc4cnn(-c5ccc(F)cc5)c4cc3C)C2)n1 (single isomer, unassigned) [Example 148, 5-(4-((2-ethyl-2H-1,2,3-triazol-4-yl)sulfonyl)-1-(3,3,3-trifluoro-2-methylpropyl)piperazin-2-yl)-1-(4-fluorophenyl)-6-methyl-1H-indazole]
23 | 72 nM | COCCn1cc(S(=O)(=O)N2CCN(CC(C)C)C(c3cc4cnn(-c5ccc(F)cc5)c4cc3C)C2)cn1 (stereo not shown) [Example 9, 1-(4-fluorophenyl)-5-(1-isobutyl-4-((1-(2-methoxyethyl)-1H-pyrazol-4-yl)sulfonyl)piperazin-2-yl)-6-methyl-1H-indazole]
24 | 25 nM | Cc1cc2c(cnn2-c2ccc(F)cc2)cc1C1CN(S(=O)(=O)c2ccc(C#N)cc2)CCN1CC(C)C(F)(F)F (single isomer, unassigned) [Example 143, 4-((3-(1-(4-fluorophenyl)-6-methyl-1H-indazol-5-yl)-4-(3,3,3-trifluoro-2-methylpropyl)piperazin-1-yl)sulfonyl)benzonitrile]
25 | 87 nM | CC(=O)CN1CCN(S(=O)(=O)c2cnn(C)n2)CC1c1cc2cnn(-c3ccc(F)cc3)c2cc1C (single isomer, unassigned) [Example 125, 1-(2-(1-(4-fluorophenyl)-6-methyl-1H-indazol-5-yl)-4-((2-methyl-2H-1,2,3-triazol-4-yl)sulfonyl)piperazin-1-yl)propan-2-one]
